Assay results from PMC12736255, “Reinvestigating Pyrrol-2-One-Based Compounds: From Antimicrobial Agents to Promising Antitumor Candidates” (Pharmaceuticals, 2025).

Legend:
Test in all cases: NCI-60 single-dose screen
NCI/ADR-RES = type: cell-based; conditions: Homo sapiens, 10^–5 M, read-out: GI (%)
From the text: (§1) In the next step, all synthesized compounds were electronically submitted and accepted for testing to the National Cancer Institute (NCI) platform, for the single dose (10^−5 M) screening against a panel of 60 human tumor cell lines, representing leukemia, melanoma, and cancers of the lung, colon, central nervous system, ovary, kidney, prostate, and breast. The results are summarized in Table 2, with the best values highlighted in red (Figures S1–S14).

NCI-H322M = type: cell-based; conditions: Homo sapiens, 10^–5 M, read-out: GI (%)
From the text: as §1

HOP-92 = type: cell-based; conditions: Homo sapiens; HOP-92, 10^–5 M; read-out: GI (%)
From the text: as §1

T-47D = type: cell-based; conditions: Homo sapiens, T47D, 10^–5 M, read-out: GI (%)
From the text: as §1

OVCAR-3 = type: cell-based; conditions: Homo sapiens; OVCAR-3, 10^–5 M; read-out: GI (%)
From the text: as §1

MALME-3M = type: cell-based; conditions: Homo sapiens, 10^–5 M, read-out: GI (%)
From the text: as §1

MOLT-4 = type: cell-based; conditions: Homo sapiens; MOLT-4, 10^–5 M; read-out: GI (%)
From the text: as §1

PC-3 = type: cell-based; conditions: Homo sapiens, PC-3, PC-3, 10^–5 M; read-out: GI (%)
From the text: as §1

SK-MEL-28 = type: cell-based; conditions: Homo sapiens; SK-MEL-28, 10^–5 M; read-out: GI (%)
From the text: as §1

A498 = type: cell-based; conditions: Homo sapiens; A498, 10^–5 M; read-out: GI (%)
From the text: as §1

TK-10 = type: cell-based; conditions: Homo sapiens; TK-10, 10^–5 M; read-out: GI (%)
From the text: as §1

KM12 = type: cell-based; conditions: Homo sapiens; KM12, 10^–5 M; read-out: GI (%)
From the text: as §1

CAKI-1 = type: cell-based; conditions: Homo sapiens; CAKI-1, 10^–5 M; read-out: GI (%)
From the text: as §1

UACC-62 = type: cell-based; conditions: Homo sapiens; UACC-62, 10^–5 M; read-out: GI (%)
From the text: as §1

SK-MEL-2 = type: cell-based; conditions: Homo sapiens; SK-MEL-2, 10^–5 M; read-out: GI (%)
From the text: as §1

SW-620 = type: cell-based; conditions: Homo sapiens; SW-620, 10^–5 M; read-out: GI (%)
From the text: as §1

RPMI-8226 = type: cell-based; conditions: Homo sapiens; RPMI-8226, 10^–5 M; read-out: GI (%)
From the text: as §1

HCC-2998 = type: cell-based; conditions: Homo sapiens; HCC-2998, 10^–5 M; read-out: GI (%)
From the text: as §1

CCRF-CEM = type: cell-based; conditions: Homo sapiens, 10^–5 M, read-out: GI (%)
From the text: as §1

786-0 = type: cell-based; conditions: Homo sapiens; 786-0, 10^–5 M; read-out: GI (%)
From the text: as §1

SNB-19 = type: cell-based; conditions: Homo sapiens; SNB-19, 10^–5 M; read-out: GI (%)
From the text: as §1

NCI-H23 = type: cell-based; conditions: Homo sapiens; NCI-H23, 10^–5 M; read-out: GI (%)
From the text: as §1

HL-60(TB) = type: cell-based; conditions: Homo sapiens, 10^–5 M, read-out: GI (%)
From the text: as §1

HCT-116 = type: cell-based; conditions: Homo sapiens; HCT-116, 10^–5 M; read-out: GI (%)
From the text: as §1

OVCAR-5 = type: cell-based; conditions: Homo sapiens; OVCAR-5, 10^–5 M; read-out: GI (%)
From the text: as §1

DU-145 = type: cell-based; conditions: Homo sapiens; DU-145, 10^–5 M; read-out: GI (%)
From the text: as §1

A549/ATCC = type: cell-based; conditions: Homo sapiens, 10^–5 M, read-out: GI (%)
From the text: as §1

SF-268 = type: cell-based; conditions: Homo sapiens; SF-268, 10^–5 M; read-out: GI (%)
From the text: as §1

UACC-257 = type: cell-based; conditions: Homo sapiens; UACC-257, 10^–5 M; read-out: GI (%)
From the text: as §1

SK-OV-3 = type: cell-based; conditions: Homo sapiens; SK-OV-3, 10^–5 M; read-out: GI (%)
From the text: as §1

COLO205 = type: cell-based; conditions: Homo sapiens, COLO 205; COLO205, 10^–5 M; read-out: GI (%)
From the text: as §1

IGROV1 = type: cell-based; conditions: Homo sapiens, IGROV-1; IGROV1, 10^–5 M; read-out: GI (%)
From the text: as §1

ACHN = type: cell-based; conditions: Homo sapiens, 10^–5 M, read-out: GI (%)
From the text: as §1

LOX IMVI = type: cell-based; conditions: Homo sapiens, 10^–5 M, read-out: GI (%)
From the text: as §1

MDA-MB-231/ATCC = type: cell-based; conditions: Homo sapiens, 10^–5 M, read-out: GI (%)
From the text: as §1

OVCAR-4 = type: cell-based; conditions: Homo sapiens; OVCAR-4, 10^–5 M; read-out: GI (%)
From the text: as §1

EKVX = type: cell-based, human; conditions: Homo sapiens, 10^–5 M, read-out: GI (%)
From the text: as §1

NCI-H226 = type: cell-based, human; conditions: Homo sapiens; NCI-H226, 10^–5 M; read-out: GI (%)
From the text: as §1

| SMILES | inhibition at 10 µM (NCI/ADR-RES) [%] | inhibition at 10 µM (NCI-H322M) [%] | inhibition at 10 µM (HOP-92) [%] | inhibition at 10 µM (T-47D) [%] | inhibition at 10 µM (OVCAR-3) [%] | inhibition at 10 µM (MALME-3M) [%] | inhibition at 10 µM (MOLT-4) [%] | inhibition at 10 µM (PC-3) [%] | inhibition at 10 µM (SK-MEL-28) [%] | inhibition at 10 µM (A498) [%] | inhibition at 10 µM (TK-10) [%] | inhibition at 10 µM (KM12) [%] | inhibition at 10 µM (CAKI-1) [%] | inhibition at 10 µM (UACC-62) [%] | inhibition at 10 µM (SK-MEL-2) [%] | inhibition at 10 µM (SW-620) [%] | inhibition at 10 µM (RPMI-8226) [%] | inhibition at 10 µM (HCC-2998) [%] | inhibition at 10 µM (CCRF-CEM) [%] | inhibition at 10 µM (786-0) [%] | further results |
| --- | --- | --- | --- | --- | --- | --- | --- | --- | --- | --- | --- | --- | --- | --- | --- | --- | --- | --- | --- | --- | --- |
| O=C1C(Nc2ccc(I)cc2)=CC(c2ccc3c(c2)OCO3)N1c1ccc(I)cc1 (centres unmarked) [3n] | 0 | 3 | 4 | 22 | 10 | 0 | 20 | 1 | 3 | 16 | 0 | 19 | 16 | 0 | 56 | 9 | 20 | 6 | 3 | 9 | inhibition at 10 µM (SNB-19): 5%; inhibition at 10 µM (NCI-H23): 18%; inhibition at 10 µM (HL-60(TB)): 16%; inhibition at 10 µM (HCT-116): 9%; inhibition at 10 µM (OVCAR-5): 0%; inhibition at 10 µM (DU-145): 0%; inhibition at 10 µM (A549/ATCC): 15%; inhibition at 10 µM (SF-268): 25%; inhibition at 10 µM (UACC-257): 0%; inhibition at 10 µM (SK-OV-3): 13%; inhibition at 10 µM (COLO205): 5%; inhibition at 10 µM (IGROV1): 5%; inhibition at 10 µM (ACHN): 0%; inhibition at 10 µM (LOX IMVI): 10%; inhibition at 10 µM (MDA-MB-231/ATCC): 0%; inhibition at 10 µM (OVCAR-4): 14%; inhibition at 10 µM (EKVX): 12%; inhibition at 10 µM (NCI-H226): 3% |
| O=C1C(Nc2ccc(I)cc2)=CC(c2ccc(Br)cc2)N1c1ccc(I)cc1 (centres unmarked) [3d] | 0 | 0 | 0 | 49 | 5 | 0 | 20 | 0 | 12 | 5 | 0 | 17 | 12 | 0 | 16 | 16 | 34 | 0 | 17 | 6 | inhibition at 10 µM (SNB-19): 6%; inhibition at 10 µM (NCI-H23): 3%; inhibition at 10 µM (HL-60(TB)): 0%; inhibition at 10 µM (HCT-116): 19%; inhibition at 10 µM (OVCAR-5): 0%; inhibition at 10 µM (DU-145): 0%; inhibition at 10 µM (A549/ATCC): 0%; inhibition at 10 µM (SF-268): 15%; inhibition at 10 µM (UACC-257): 3%; inhibition at 10 µM (SK-OV-3): 0%; inhibition at 10 µM (COLO205): 0%; inhibition at 10 µM (IGROV1): 16%; inhibition at 10 µM (ACHN): 15%; inhibition at 10 µM (LOX IMVI): 1%; inhibition at 10 µM (MDA-MB-231/ATCC): 0%; inhibition at 10 µM (OVCAR-4): 30%; inhibition at 10 µM (EKVX): 36%; inhibition at 10 µM (NCI-H226): 17% |
| O=C1C(Nc2ccc(I)cc2)=CC(c2ccco2)N1c1ccc(I)cc1 (centres unmarked) [3m] | 15 | 19 | 29 | 49 | 8 | 34 | 70 | 28 | 20 | 12 | 7 | 48 | 53 | 61 | 100 | 16 | 93 | 10 | 59 | 36 | inhibition at 10 µM (SNB-19): 8%; inhibition at 10 µM (NCI-H23): 19%; inhibition at 10 µM (HL-60(TB)): 30%; inhibition at 10 µM (HCT-116): 20%; inhibition at 10 µM (OVCAR-5): 0%; inhibition at 10 µM (DU-145): 0%; inhibition at 10 µM (A549/ATCC): 16%; inhibition at 10 µM (SF-268): 79%; inhibition at 10 µM (UACC-257): 32%; inhibition at 10 µM (SK-OV-3): 67%; inhibition at 10 µM (COLO205): 8%; inhibition at 10 µM (IGROV1): 8%; inhibition at 10 µM (ACHN): 9%; inhibition at 10 µM (LOX IMVI): 63%; inhibition at 10 µM (MDA-MB-231/ATCC): 11%; inhibition at 10 µM (OVCAR-4): 0%; inhibition at 10 µM (EKVX): 39%; inhibition at 10 µM (NCI-H226): 22% |
| O=C1C(Nc2ccc(I)cc2)=CC(c2ccccc2)N1c1ccc(I)cc1 (centres unmarked) [3a] | 0 | 17 | 0 | 34 | 1 | 0 | 2 | 0 | 2 | 16 | 12 | 8 | 3 | 0 | 26 | 0 | 100 | 0 | 4 | 17 | inhibition at 10 µM (SNB-19): 8%; inhibition at 10 µM (NCI-H23): 6%; inhibition at 10 µM (HL-60(TB)): 0%; inhibition at 10 µM (HCT-116): 14%; inhibition at 10 µM (OVCAR-5): 0%; inhibition at 10 µM (DU-145): 0%; inhibition at 10 µM (A549/ATCC): 5%; inhibition at 10 µM (SF-268): 16%; inhibition at 10 µM (UACC-257): 13%; inhibition at 10 µM (SK-OV-3): 8%; inhibition at 10 µM (COLO205): 0%; inhibition at 10 µM (IGROV1): 16%; inhibition at 10 µM (ACHN): 13%; inhibition at 10 µM (LOX IMVI): 18%; inhibition at 10 µM (MDA-MB-231/ATCC): 0%; inhibition at 10 µM (OVCAR-4): 20%; inhibition at 10 µM (EKVX): 37%; inhibition at 10 µM (NCI-H226): 4% |
